Experimental findings from US10653688B2, “6-(6-membered heteroaryl and aryl)isoquinolin-3-yl carboxamides and preparation and use thereof” (Samumed, LLC, priority 2017, dated 2020) are described below.

The test system of test [1] is Cyclin D1 phosphorylation at Threonine 286 (pCcnD1) over total Cyclin D1 in SH-SY5Y cells. The experiment in a line: phosphoCcnD1 to total CcnD1 ratio (PTT) cell-based assay, western blot. As to conditions: Homo sapiens, 48 hours. As to the method:
Representative compounds were screened using the cell-based assay procedure for the ratio of signal of Cyclin D1 phosphorylation at Threonine 286 (pCcnD1) over the signal of total Cyclin D1 (CcnD1) (abbreviated: phosphoCcnD1 to total CcnD1 ratio, or PTT) as described below.
SH-SY5Y cells (human neuroblastoma, Sigma, Saint-Louis, Mo.) were cultured in 1:1 DMEM/F-12 medium supplemented with 15% FBS, 1% non-essential amino acid, and 1% penicillin/streptomycin.
SH-SY5Y cells were seeded at 1.0×10^5 cells in 1 mL per well in a 24-well plate. After cell adherence was confirmed, DMSO-resuspended Samumed compounds were dispensed to eight wells as a serial dilution from 10 μM to 4.6 nM final concentration in medium, or at 1.1 μM to 4.6 nM with particularly potent compounds. Cells were exposed to Samumed compounds for 48 hours in a 37° C. incubator.
Wells of compound-treated cells were visually checked for cell death before being washed with 500 μL per well of 1×DPBS supplemented with phosphatase inhibitor diluted to 1×. Cells were then lysed with 90 μL 1×RIPA buffer supplemented with phosphatase and protease inhibitors (each diluted to a final 1×). After scraping, 60 μL of cell lysate from each sample was used to dilute 4×LDS (ThermoFisher, NP0007) and 20×XT reducing agent (Bio-Rad, 1610792), each diluted to 1× final. All samples were then denatured via boiling at 95° C. Denatured cell sample lysates were directly tested for pCcnD1 and total CcnD1 signal by Western blot techniques and analysis. Specifically, denatured lysates were directly transferred to NuPAGE™ 4-12% Bis-Tris Midi Protein Gels, 26-well gels (ThermoFisher, WG1403BOX). Gels were transferred to […] nitrocellulose membranes via iBlot™ Transfer Stack, nitrocellulose, regular size (ThermoFisher, IB301031). Membranes were blocked with 1×TBS, 5% milk (Bio-Rad, 1706404XTU) before being probed for overnight with either anti-pCcnD1 primary antibody (Cell Signaling Technology, 2978S) or anti-total CcnD1 primary antibody (Cell Signaling Technology, 3300S) diluted 1:500 in 1×TBS-0.05% Tween-20, 3% milk. After overnight incubation in primary antibodies, membranes were washed profusely with 1×TBS-0.05% Tween-20 and probed for 1 hour with secondary anti-rabbit/HRP conjugate (Cell Signaling Technology, 7074S) diluted 1:1000 in 1×TBS-0.05% Tween-20, 3% milk. After incubation in secondary antibody, membranes were washed with 1×TBS-0.05% Tween-20.
Probed and washed membranes were developed for pCcnD1 or total CcnD1 signal with SuperSignal™ West Femto Maximum Sensitivity Substrate (ThermoFisher, 34096) using the ChemoDoc-It^2 (UVP) and related GelDocIt imaging software. Blots were then stripped, blocked, stained with anti-β-actin/HRP conjugate antibody (Cell Signaling Technology, 5125S), developed, and imaged for housekeeping β-actin protein control as previously described. Densitometry was measured with ImageJ (NIH) and signal was used to plot, draw the curves fitting, and determine the EC50 values in GraphPad Prism for tested Samumed compounds.
A general note: In western blotting, separated proteins are transferred to a membrane and probed.

The subject of test [2] is Wnt activity (SW480 colon carcinoma cells stably expressing the Sp5-Luc reporter gene). The experiment in a line: Wnt activity screening assay (Sp5-Luc reporter gene assay). It counts as cell-based, human. The conditions noted are these: Homo sapiens; for EC50: 36 to 48 hours; for inhibition at 10 µM: read-out: percent inhibition at 10 μM (given for EC50 >10 μM), 10 μM. In short, it runs like this:
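SW480 colon carcinoma cells stably carrying a lentiviral luciferase reporter driven by an Sp5 promoter with eight TCF/LEF sites, plated at 4,000 cells/well in DMEM with 1% FBS. Compound exposure for 36–48 h at 37 °C, then luminescence read. Signals normalized to DMSO; EC50 from four-parameter nonlinear fit.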

The subject of test [3] is IL-6 in human peripheral blood mononuclear cells (huPBMCs). In words: IL-6 inhibition in LPS-stimulated human peripheral blood mononuclear cells (HTRF). Type of test: cell-based. As to conditions: Homo sapiens, PBMC; for EC50: LPS 50 ng/mL, 22 hours, IL-6 HTRF; for inhibition at 10 µM: read-out: percent inhibition at 10 μM (given for EC50 >10 μM), LPS, IL-6, 10 μM. The method in brief:
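Fresh normal human PBMCs at 1×10e6 cells/mL in RPMI with 1% FBS received compound, then 50 ng/mL E. coli 0111:B4 LPS 2 h later, and were incubated a further 22 h at 37° C. IL-6 read by HTRF (665/620 nm ratio), normalized to DMSO; EC50 from 4-parameter fit.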
A general note: TR-FRET usually uses a lanthanide donor and a delayed reading to cut background.

Where only a bound is given, the exact number is not on record here.

For the compound `Cc1nccn1CC(=O)Nc1cc2cc(-c3cccnc3)ccc2cn1` [Compound 14, 2-(2-Methyl-1H-imidazol-1-yl)-N-(6-(pyridin-3-yl)isoquinolin-3-yl) acetamide], the concentration giving a half-maximal response (EC50) (usually the midpoint of the concentration-response curve) in test [1] amounted to 205 nM; in test [2], 3600 nM; in test [3], 9030 nM.
As to `O=C(Cn1ccnc1)Nc1cc2cc(-c3cccnc3)ccc2cn1` [Compound 15, 2-(1H-Imidazol-1-yl)-N-(6-(pyridin-3-yl)isoquinolin-3-yl)acetamide], the EC50 amounted to 127 nM in test [1], 3100 nM in test [2] and 4820 nM in test [3].
As for `O=C(CN1CCCC1)Nc1cc2cc(-c3cncc(F)c3)ccc2cn1` [Compound 18, N-(6-(5-Fluoropyridin-3-yl)isoquinolin-3-yl)-2-(pyrrolidin-1-yl)acetamide], the EC50 in test [1] was 123 nM; in test [2], over 10000 nM; in test [3], over 10000 nM. Further, the inhibition (usually the drop in the measured response relative to a control, in per cent) at 10 µM in test [2] worked out at 9.2%; in test [3], 5.8%.
Consider `CN1CCC(C(=O)Nc2cc3cc(-c4cncc(F)c4)ccc3cn2)CC1` [Compound 19, N-(6-(5-Fluoropyridin-3-yl)isoquinolin-3-yl)-1-methylpiperidine-4-carboxamide], for which the EC50 in test [1] was 140 nM; in test [2] it was over 10000 nM; in test [3], 9150 nM. In addition, the inhibition at 10 µM in test [2] is 35.9%.
Take `CN1CCN(CC(=O)Nc2cc3cc(-c4cncc(F)c4)ccc3cn2)CC1` [Compound 20, N-(6-(5-Fluoropyridin-3-yl)isoquinolin-3-yl)-2-(4-methylpiperazin-1-yl) acetamide]: the figures for the EC50 in test [1], in test [2] and in test [3] were 355 nM, over 10000 nM and over 10000 nM, respectively. For the same compound, the inhibition at 10 µM in test [2] came to 17.4%; in test [3], 3.6%.
Turning to `O=C(CCN1CCOCC1)Nc1cc2cc(-c3cncc(F)c3)ccc2cn1` [Compound 23, N-(6-(5-Fluoropyridin-3-yl)isoquinolin-3-yl)-3-morpholinopropanamide], the concentration giving a half-maximal response (EC50) in test [1] was 80 nM; in test [2] it was over 10000 nM; in test [3], over 10000 nM. Further, the inhibition at 10 µM turned out to be 38.7% in test [2] and 8.6% in test [3].
In the case of `CN1CCC(C(=O)Nc2cc3cc(-c4cncc(C#N)c4)ccc3cn2)CC1` [Compound 32, N-(6-(5-Cyanopyridin-3-yl)isoquinolin-3-yl)-1-methylpiperidine-4-carboxamide], the values for the EC50 in test [1], in test [2] and in test [3] were 1 nM, over 10000 nM and over 10000 nM, respectively. For the same compound, the inhibition at 10 µM in test [2] is 24.2%; in test [3] it was 5.1%.
As to `COc1cncc(-c2ccc3cnc(NC(=O)C4CCN(C)CC4)cc3c2)c1` [Compound 33, N-(6-(5-Methoxypyridin-3-yl)isoquinolin-3-yl)-1-methylpiperidine-4-carboxamide], the EC50 stood at 9100 nM in test [1], 810 nM in test [2] and 3650 nM in test [3].
For `O=C(Nc1cc2cc(-c3cncc(NC4CCNCC4)n3)ccc2cn1)C1CCCCC1` [Compound 44, N-(6-(6-(piperidin-4-ylamino)pyrazin-2-yl)isoquinolin-3-yl) cyclohexanecarboxamide], in that order: 4 nM, 319 nM and 375 nM.
Take `O=C(Nc1cc2cc(-c3cncc(CN4CCCC4)c3)ccc2cn1)C1CC1` [Compound 51, N-(6-(5-(Pyrrolidin-1-ylmethyl)pyridin-3-yl)isoquinolin-3-yl) cyclopropanecarboxamide]: the EC50 in test [1] turned out to be 974 nM; in test [2], 1260 nM; in test [3], 3000 nM.
For `O=C(Nc1cc2cc(-c3cncc(CN4CCC(O)CC4)c3)ccc2cn1)C1CC1` [Compound 53, N-(6-(5-((4-Hydroxypiperidin-1-yl)methyl)pyridin-3-yl)isoquinolin-3-yl) cyclopropanecarboxamide], in that order: 30 nM, 691 nM and 3250 nM.
Taken in the same sequence, the figures for `CN1CCN(Cc2cncc(-c3ccc4cnc(NC(=O)C5CC5)cc4c3)c2)CC1` [Compound 56, N-(6-(5-((4-Methylpiperazin-1-yl)methyl)pyridin-3-yl)isoquinolin-3-yl) cyclopropanecarboxamide] were 45 nM, 1230 nM and 9500 nM.
For `O=C(Nc1cc2cc(-c3cncc(CN4CCOCC4)c3)ccc2cn1)C1CC1` [Compound 57, N-(6-(5-(Morpholinomethyl)pyridin-3-yl)isoquinolin-3-yl) cyclopropanecarboxamide], in that order: 193 nM, 1140 nM and 3800 nM.
Turning to `[2H]c1nc([2H])c(-c2ccc3cnc(NC(=O)CN4CCCC4)cc3c2)c([2H])c1[2H]` [Compound 60, N-(6-(pyridin-3-yl-d4)isoquinolin-3-yl)-2-(pyrrolidin-1-yl)acetamide], the figures for the EC50 in test [1], in test [2] and in test [3] were 250 nM, over 10000 nM and 9090 nM, respectively. For the same compound, the inhibition at 10 µM in test [2] amounted to 41.9%.
In the case of `CN1CCC(C(=O)Nc2cc3cc(-c4cnccn4)ccc3cn2)CC1` [Compound 75, 1-Methyl-N-(6-(pyrazin-2-yl)isoquinolin-3-yl)piperidine-4-carboxamide], the EC50 in test [1] was 447 nM; in test [2], over 10000 nM; in test [3] it was over 10000 nM. Moreover, the inhibition at 10 µM in test [2] came out at 33.7%; in test [3], 27.5%.
For the compound `CC(C)CN1CCCC(C(=O)Nc2cc3cc(-c4cnccn4)ccc3cn2)CC1` (stereo not drawn) [Compound 81, 1-Isobutyl-N-(6-(pyrazin-2-yl)isoquinolin-3-yl)azepane-4-carboxamide], the EC50 is 3000 nM in test [1], over 10000 nM in test [2] and over 10000 nM in test [3]. The inhibition at 10 µM in test [2] turned out to be 3.9%; in test [3], 1.6%.
For `O=C(Nc1cc2cc(-c3cncc(NC4CCNCC4)n3)ccc2cn1)C1CCOCC1` [Compound 109, N-(6-(6-(Piperidin-4-ylamino)pyrazin-2-yl)isoquinolin-3-yl)tetrahydro-2H-pyran-4-carboxamide], the figures for the EC50 in test [1], in test [2] and in test [3] were 412 nM, 738 nM and 674 nM, respectively.
Turning to `CN1CCN(c2cc(C(=O)Nc3cc4cc(-c5cnc6ocnc6c5)ccc4cn3)ccn2)CC1` [Compound 132, 2-(4-Methylpiperazin-1-yl)-N-(6-(oxazolo[5,4-b]pyridin-6-yl)isoquinolin-3-yl)isonicotinamide], the EC50 in test [1] is over 10000 nM; in test [2], 3150 nM; in test [3] it was over 10000 nM. In test [3], the inhibition at 10 µM is 8.5%.
For `Cc1cc2ncc(-c3ccc4cnc(NC(=O)c5ccnc(N6CCN(C)CC6)c5)cc4c3)cc2[nH]1` [Compound 135, N-(6-(2-Methyl-1H-pyrrolo[3,2-b]pyridin-6-yl)isoquinolin-3-yl)-2-(4-methylpiperazin-1-yl)isonicotinamide], the results for the EC50 in test [1], in test [2] and in test [3] were 37 nM, 2590 nM and 2110 nM, respectively.
